Experimental data from patent US20250127773A1, “MODULATORS OF THE BETA-3 ADRENERGIC RECEPTOR USEFUL FOR THE TREATMENT OR PREVENTION OF HEART FAILURE” (Arena Pharmaceuticals, Inc., priority 2021, published 2025).

Target: T1, Beta-3 Adrenergic Receptor (Homo sapiens, UniProt P13945)
T1 construct: expressed in transfected cells; host or cells: CHO-K1
Assay: HTRF cAMP antagonist assay, IC50 determination
Type: cell-based
Conditions: CHO-K1 cells stably expressing recombinant receptor; vs isoproterenol at EC90; unit nM
Experimental: HTRF CAMP assays were performed according to manufacturer's instructions (Cisbio, CAMP Dynamic 2 Assay Kit; #62AM4PEJ). CHO-K1 cells stably expressing recombinant receptor were harvested and suspended in warm PBS to make a 300,000 cells/mL stock. This cell suspension was dispensed into 384 well assay plates (PerkinElmer ProxiPlate #6008280) at 5 μL per well (1500 cells/well) along with a CAMP standard curve.
Compounds were dissolved and serially diluted (5-fold) in DMSO to generate a 10-point dose response stock. […] After a brief incubation, 2.5 μL of isoproterenol stock, prepared at a concentration 4 times its EC90 at the receptor of interest, was added to the wells. The EC90 for isoproterenol, a beta-adrenergic agonist, was determined in separate experiments using standard methods to measure agonist potencies.
Following a 1-hour incubation at room temperature, 5 μL of CAMP-D2 Reagent diluted in Lysis Buffer was added to each well followed by 5 μL of Cryptate Reagent. Plates were further incubated at room temperature for 1 hour prior to reading. Time resolved fluorescence measurements were collected on a suitable, HTRF-capable plate reader.
Counts from the plate reader were fit to the CAMP standard curve on the assay plate in order to determine cAMP concentrations in each well, and these values were used to construct dose-response curves to obtain IC50 values.

T1 sequence (P13945 whole entry): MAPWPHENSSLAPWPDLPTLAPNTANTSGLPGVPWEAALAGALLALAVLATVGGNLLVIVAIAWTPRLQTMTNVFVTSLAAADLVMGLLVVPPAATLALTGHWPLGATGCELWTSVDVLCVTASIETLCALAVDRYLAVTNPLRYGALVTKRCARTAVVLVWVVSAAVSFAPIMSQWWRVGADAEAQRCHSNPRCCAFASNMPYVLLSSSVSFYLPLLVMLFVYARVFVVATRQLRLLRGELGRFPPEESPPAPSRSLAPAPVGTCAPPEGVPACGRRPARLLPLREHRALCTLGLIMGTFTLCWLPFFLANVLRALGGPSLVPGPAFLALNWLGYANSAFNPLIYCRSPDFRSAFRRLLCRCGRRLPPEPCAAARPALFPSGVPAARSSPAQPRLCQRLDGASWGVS

Compound	IC50 [nM]
CNS(=O)(=O)c1cccc(OCC(O)CNC2COC3(CCN(S(=O)(=O)c4cccc(-c5cnn(C)c5)c4)CC3)C2)c1 [Compound B216, 3-((S)-2-hydroxy-3-((S)-8-(3-(1-methyl-1H-pyrazol-4-yl)phenylsulfonyl)-1-oxa-8-azaspiro[4.5]decan-3-ylamino)propoxy)-N-20 methylbenzenesulfonamide]	57.7
CCOCCNS(=O)(=O)c1cccc(OCC(O)CNC2COC3(CCN(S(=O)(=O)c4ccc5ccccc5c4)CC3)C2)c1 [Compound B47, NV-(2-ethoxyethyl)-3-((2S)-2-hydroxy-3-(8-(naphthalen-2-ylsulfonyl)-1-oxa-8-azaspiro[4.5]decan-3-ylamino)propoxy)benzenesulfonamide]	155
C[C@@H](NS(=O)(=O)c1cccc(OC[C@@H](O)CNC2COC3(CCN(S(=O)(=O)c4ccc5ccccc5c4)CC3)C2)c1)C1CC1 (stereo partly drawn) [Compound B93, N—((R)-1-cyclopropylethyl)-3-((2S)-2-hydroxy-3-(8-(naphthalen-2-ylsulfonyl)-1-oxa-8-25 azaspiro[4.5]decan-3-ylamino)propoxy)benzenesulfonamide]	112
